In paper PMC4157579, “Lysine Acetylation Controls Local Protein Conformation by Influencing Proline Isomerization” (Molecular Cell, 2014):
Ends that are not written are not given here. * marks the point of attachment. pNA = O=[N+]([O-])c1ccc(N*)cc1

Tested on: chymotrypsin
Assay: Chymotrypsin-coupled proline isomerization assay (pNA release)
Type: biochemical
Conditions: 10 μl of 7.8 mM pNA peptide per 1 ml, 395 nm, every 0.6 s for 20 s, first 0.6–10.2 s, mean initial rate, n = 4–5
Description: Figure 6 K14ac Promotes P16trans (A) Relative binding ± SEM (n = 2–11) assessed by surface plasmon resonance of purified recombinant Spt7 bromodomain (residues 363–619) to the indicated H3 peptides (11–26). (B) Coomassie-stained gel showing a pull-down experiment, quantified relative to the K18ac peptide, with the indicated H3 peptides and the purified recombinant Spt7 bromodomain (n = 3). (C) A chymotrypsin-coupled assay for proline isomers using synthetic hexamers based on GGKAPF-pNA (unmodified). pNA is released by chymotrypsin cleavage only from the trans-proline-containing peptide. (D) K14ac and substitutions at K14 influence isomerization at A15-P16 and pNA release, expressed as mean initial rate ± SEM (n = 4–5) over the first 0.6–10.2 s of the reaction. (E) Schematic showing how K14ac or the K14R substitution influence A15-P16 conformation. […]
Saccharomyces cerevisiae strains used in this study are shown in Supplemental Experimental Procedures. […] Quantitation was performed using ImageJ software. […] The P16 proline isomerase assay was performed as described ([Shan et al., 1994]) using 10 μl of 7.8 mM pNA peptide (Proteogenix) solution per 1 ml assay reaction and pNA release monitored at 395 nm. […] Sensorgrams, binding curves, and Kd values were analyzed with BIA T100 and T200 evaluation software (GE Healthcare) using a 1:1 binding model. […]

## GGKAPF-pNA [unmodified peptide]
  Initial rate of cleavage (pNA release): comparable to that reported previously in a similar assay
